Reference: US10682371B2, “Small molecule conjugates specifically activated in tumor microenvironment for targeting and use thereof” (priority 2014, dated 2020)
Read-outs that look alike come from different tables or passages of the source.

How the values were obtained:
[1] = Solubility / formulation test in solvent 1 and solvent 2; format: physicochemical
Method: In Table 11, AAN, AANL and AANK indicate the linkage formed by small peptides in the compounds, A is Ala, N is Asn, L is Leu and K is Lys. […] The dissolution concentration is 10 mg/ml.
B1, B2, B3 and B4 and various control compounds were dried under vacuum, sterilized via gas sterilization, and separately packing in a sterile room. Before animal test, B1, B2, B3 and B4 were dissolved by solvent 1 (injectable water) or solvent 2 (30% alcohol, 70% injectable water) and diluted by injectable water to the desired concentration in sterile room. […] Change in solubility may greatly affect the formulation scheme of a drug.
D1, D2, D3, D4 and various control compounds were dried under vacuum, sterilized via gas sterilization, and separately packing in a sterile room. […] Change in solubility may greatly affect the formulation scheme of a drug.

[2] = system: Human ovarian cancer SK-OV-3; assay: Multiple tumor models in nude mice: SK-OV-3; format: in vivo
Method: (§1) 1) Corresponding tumor cells were purchased from American type culture collection (ATCC) and identified according the specification provided by ATCC. Cells were cultivated in DMEM culture solution containing 10% fetal bovine serum at 37° C. and 5% CO2. The cells were passaged for every three days and cells within the 15th passage were used.
(§2) 2) Production of tumor. 5×10^6 corresponding cells were subcutaneously injected to the back of the nude mice. Mice were randomly grouped after the tumor reached at least 100 mm^3. Then treatment began and the day on which the treatment began was day 1.
(§3) 3) Course of treatment. […] The control group was administered by physiological saline. Animals were administered once weekly for three weeks.
(§4) 3) Course of treatment. According to the clinical application of A1, A1 was administered in a dose of ⅙ MTD, i.v., 17.6 μmol/kg. The control group was administered by physiological saline. Animals were administered once weekly for three weeks.
(§5) 3) Course of treatment. According to the clinical application of B1, B1 was administered in a dose of ⅙ MTD, i.v., 17.6 μmol/kg. The control group was administered by physiological saline. Animals were administered once weekly for three weeks.
as §3, §3

[3] = system: Human fibrosarcoma HT-1080 tumor tissue homogenate; format: biochemical; conditions: Human fibrosarcoma HT-1080
Summary of the method: (§6)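 Incubation used 37° C, pH6.0 and a 100 μg tissue homogenate as the protease source. Compounds went in at 1 mg/ml, and their activation was compared within the same tissue.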

[4] = system: Human renal cancer OS-RC-2; assay: Multiple tumor models in nude mice: OS-RC-2; format: in vivo
Method: as §1, §2, §3, §4, §5, §3, §3

4T1 cells = assay: BALB/C mice model for tumor metastasis (4T1, lung metastases); format: in vivo; conditions: for Inhibitory rate on metastasis / Number of metastasized tumor: IV every three days for 4 times; for Inhibitory effect on tumor metastasis, in words: compared with parent drug group and control group
Summary of the method: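 Read-out: lung metastasis count under anatomical microscope after Bouin's staining, day 27. Treatment (IV every three days ×4, saline for controls) started after surgical removal of the ~1.5 cm subcutaneous tumor grown from 10^6 4T1 cells (passage ≤15) in BALB/C mice.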

BALB/C mice = assay: Maximum tolerated dose (MTD) / acute toxicity by single intravenous injection; conditions: for MTD (maximum tolerated dose): intravenous injection, one time
[5] = system: Human prostate cancer PC-3 cells / Panc-1 cells; assay: Tumor treatment in nude mice (PC-3 cells purchased, Panc-1 cells injected; Examples 22, 32, 42); format: in vivo; conditions: for Size of tumor (mm^3) Day 10 / inhibitory rate on tumor Day 10 / Size of tumor (mm^3) Day 24 / inhibitory rate on tumor Day 24: nude mice, IV once weekly for four weeks; for Inhibition on tumor growth, in words: compared with parent drug group (same molar concentration) and control group
Summary of the method: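 Nude mice bearing subcutaneous Panc-1 xenografts (5×10^6 cells on the back) were randomized once tumors reached at least 100 mm^3. Drugs were given intravenously once weekly for four weeks, with saline controls. PC-3 cells were grown in DMEM/10% FBS and used within passage 15.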

tumor tissue homogenates = format: biochemical
Summary of the method: as §6

[6] = Table 41, i.v. 17.6 μmol/kg once weekly for three weeks
[7] = Table 40, BALB/C mice, 4T1, lung metastases day 27, B1-B4 17.6 μmol/kg, Docetaxel 3 μmol/kg
[8] = single intravenous injection, 125 mg/kg, 10 BALB/C mice per group
[9] = single intravenous injection, 150 mg/kg, 10 BALB/C mice per group
[10] = single intravenous injection, 175 mg/kg, 10 BALB/C mice per group
[11] = single intravenous injection, 200 mg/kg, 10 BALB/C mice per group
[12] = Table 38, B1-B4 25 mg/kg, Docetaxel […]
[13] = S1′ i.v. 17.6 μmol/kg once weekly for three weeks
[14] = 4T1, BALB/C mice, lung, day 27, S1′-S4′ 12 mg/kg, Paclitaxel 4 mg/kg
[15] = S1′-S4′ 24 mg/kg, Paclitaxel 8 mg/kg
[16] = Table 51, 25 mg/kg once weekly for three weeks
[17] = Table 50, BALB/C mice, 4T1, lung metastases day 27, D1-D4 25 mg/kg, Docetaxel 4.2 mg/kg

## COCCOCC(=O)NCCCC[C@H](NC(=O)COCCOC)C(=O)N[C@H](C)C(=O)N[C@H](C)C(=O)N[C@H](CC(N)=O)C(=O)Nc1ccc(COC(=O)OC(C(=O)OC2C[C@@]3(O)[C@@H](OC(=O)c4ccccc4)[C@H]4[C@](C)(C(=O)[C@H](O)C(=C2C)C3(C)C)[C@@H](O)CC2OC[C@]24OC(C)=O)[C@@H](NC(=O)OC(C)(C)C)c2ccccc2)cc1 (stereo partly shown) [Compound B1]
[1]; solvent 1 (injectable water), Table 33, water-soluble Docetaxel series
  solubility in Solvent 1: insoluble
[1]; solvent 2 (30% alcohol, 70% injectable water), Table 33, water-soluble Docetaxel series
  solubility in Solvent 2: soluble
[2]; [6]
  inhibitory rate on tumor (Day 26): 74.67%
[3]; Table 34, 1 mg/ml, 100 μg acidized homogenate, Docetaxel release by HPLC
  activation efficiency (%): 79.1%
[4]; [6]
  inhibitory rate on tumor (Day 26): 86.67%
4T1 cells; [7]
  Inhibitory rate on metastasis: 96.0
  Number of metastasized tumor: 5 ± 3
4T1 cells
  Inhibitory effect on tumor metastasis, in words: greatly improved
BALB/C mice; BALB/C mice receiving 175 mg/kg injection
  Behaviors and death observed: no pilo-erection, hair tousle and lackluster, lethargy, stoop, irritable reaction and death
BALB/C mice; BALB/C mice
  MTD (maximum tolerated dose): about 150 mg/kg
BALB/C mice; [8]
  Mortality rate (%): 0%
  Number of dead animal: 0
BALB/C mice; [9]
  Mortality rate (%): 0%
  Number of dead animal: 0
BALB/C mice; [10]
  Mortality rate (%): 0%
  Number of dead animal: 0
BALB/C mice; [11]
  Mortality rate (%): 20%
  Number of dead animal: 2
[5]; [12]
  Size of tumor (mm^3) Day 10: 92.4 ± 59.66 mm^3
  inhibitory rate on tumor Day 10: 67.8
  Size of tumor (mm^3) Day 24: 128.45 ± 105.56 mm^3
  inhibitory rate on tumor Day 24: 66.3
[5]
  Inhibition on tumor growth, in words: greatly improved

## COCCOCC(=O)N[C@H](C)C(=O)N[C@H](C)C(=O)N[C@H](CC(N)=O)C(=O)Nc1ccc(COC(=O)OC(C(=O)OC2C[C@@]3(O)C(OC(=O)c4ccccc4)[C@@H]4C5(OC(C)=O)COC5C[C@H](O)[C@@]4(C)C(=O)[C@H](OC(C)=O)C(=C2C)C3(C)C)[C@@H](NC(=O)c2ccccc2)c2ccccc2)cc1 (stereo in doubt) [S1′, 2-(2-methoxyethoxy) acetylamino-L-Ala-L-Ala-L-Asn-p-amino-benzyl-paclitaxel]
[1]; Solvent 1 injectable water, dissolution concentration 10 mg/ml
  solubility in Solvent 1: soluble
[1]; Solvent 2: 50% injectable water, 45%-49% propanediol, 1%-5% Tween80, dissolution concentration 10 mg/ml
  solubility in Solvent 2: soluble
[1]; solvent 1 injectable water, solvent 2 50% injectable water, 42%-49% propanediol, 1%-8% Tween80
  Concentration achieved, completely dissolved in both solvent 1 and solvent 2: 10 mg/mL
[2]; [13]
  inhibitory rate on tumor (Day 26): 85.6%
Tumor tissue homogenates
  Activation efficiency by tumor tissue, in words: highest activation efficiency among the screened compounds
[3]; 100 μg acidized homogenate pH6.0, 1 mg/ml, 37°
  Activation ratio (%) in homogenates from different tumor tissues: 74.7%
[4]; [13]
  inhibitory rate on tumor (Day 26): 85.7%
4T1 cells; [14]
  Inhibitory rate on metastasis: 99.2%
  Number of metastasized tumor: 2 ± 3
4T1 cells
  Inhibitory effect on tumor metastasis, in words: greatly improved
BALB/C mice; BALB/C mice receiving 90 mg/kg injection
  Behaviors and death observed: no pilo-erection, hair tousle and lackluster, lethargy, stoop, irritable reaction and death
BALB/C mice; BALB/C mice
  MTD (maximum tolerated dose): about 90 mg/kg
BALB/C mice; BALB/C mice, single iv, 125 mg/kg
  Mortality rate (%): 0%
BALB/C mice; BALB/C mice, single iv, 125 mg/kg, 10 animals
  Number of dead animal: 0
BALB/C mice; BALB/C mice, single iv, 150 mg/kg
  Mortality rate (%): 0%
BALB/C mice; BALB/C mice, single iv, 150 mg/kg, 10 animals
  Number of dead animal: 0
BALB/C mice; BALB/C mice, single iv, 175 mg/kg
  Mortality rate (%): 0%
BALB/C mice; BALB/C mice, single iv, 175 mg/kg, 10 animals
  Number of dead animal: 0
BALB/C mice; BALB/C mice, single iv, 200 mg/kg
  Mortality rate (%): 10%
BALB/C mice; BALB/C mice, single iv, 200 mg/kg, 10 animals
  Number of dead animal: 1
[5]
  Inhibition on tumor growth, in words: greatly improved
[5]; [15]
  Size of tumor (mm^3) Day 10: 76.42 ± 14.96 mm^3
  inhibitory rate on tumor Day 10: 35.7%
  Size of tumor (mm^3) Day 24: 84.62 ± 45.94 mm^3
  inhibitory rate on tumor Day 24: 66.1%

## COCCOCC(=O)N[C@H](C)C(=O)N[C@H](C)C(=O)N[C@H](CC(N)=O)C(=O)Nc1ccc(COC(=O)OC(C(=O)OC2C[C@@]3(O)[C@@H](OC(=O)c4ccccc4)[C@H]4[C@](C)(C(=O)[C@H](O)C(=C2C)C3(C)C)[C@@H](O)CC2OC[C@]24OC(C)=O)[C@@H](NC(=O)OC(C)(C)C)c2ccccc2)cc1 (stereo partly drawn) [Compound D1, 2-(2-methoxyethoxy) acetyl-L-Ala-L-Ala-L-Asn-4-amino benzyl-Docetaxel]
[1]; Table 44, second column (head repeats Solvent 1), text: solvent 2 (45% alcohol, 55% injectable water)
  solubility in Solvent 1: soluble
[1]; solvent 1 (injectable water), Table 44, first column, Docetaxel D series
  solubility in Solvent 1: insoluble
[2]; [16]
  inhibitory rate on tumor (Day 26): 82.9%
Tumor tissue homogenates
  Activation efficiency by tumor tissue, in words: highest activation efficiency
[3]; Table 45, 1 mg/ml, 100 μg acidized homogenate, Docetaxel release by HPLC
  Activation ratio (%) in homogenates from different tumor tissues: 77.23%
[4]; [16]
  inhibitory rate on tumor (Day 26): 87.7%
4T1 cells; [17]
  Inhibitory rate on metastasis: 95.2
  Number of metastasized tumor: 5 ± 3
4T1 cells
  Inhibitory effect on tumor metastasis, in words: greatly improved
BALB/C mice; BALB/C mice receiving 150 mg/kg injection
  Behaviors and death observed: no pilo-erection, hair tousle and lackluster, lethargy, stoop, irritable reaction and death
BALB/C mice; BALB/C mice
  MTD (maximum tolerated dose): about 150 mg/kg
BALB/C mice; [8]
  Mortality rate (%): 0%
  Number of dead animal: 0
BALB/C mice; [9]
  Mortality rate (%): 0%
  Number of dead animal: 0
BALB/C mice; [10]
  Mortality rate (%): 0%
  Number of dead animal: 0
BALB/C mice; [11]
  Mortality rate (%): 10%
  Number of dead animal: 1
